Measurements reported in patent publication US8940716B2, “Bicyclic heteroaryl compounds as GPR119 modulators” (Bristol-Myers Squibb Company, priority 2010, dated 2015).

Assays:
[1] = test system: plasma glucose in male C57BL/6J mice; test: Mouse oral glucose tolerance test; type: in vivo
Procedure: Twenty four (24) male C57BL/6J mice (8-10 weeks old, average weight 28 g) were randomized into 4 groups (1 mouse/cage) of 6 mice per group based on fed plasma glucose and body weight. Prior to initiating the study, mice were fasted overnight and the next morning they were weighed and placed in the experimental lab. After 30 min in the environment, the mice were bled via tail tip at −60 min and immediately given their first oral administration of vehicle (40% PEG400, 10% Cremophor EL, 50% water) or compound solutions (5 ml/kg). At time 0 the mice were bled and given 50% glucose (2 g/kg) to initiate the oral glucose tolerance test (oGTT). The mice were bled 30, 60 and 120 min after the glucose load. Blood samples were drawn into potassium EDTA, placed on ice during the study and subsequently centrifuged for 10 min at 3000 rpm at 4° C. Plasma samples were diluted 11-fold for glucose analysis in the COBAS MIRA® System (Roche Diagnostics). Area under the curve was calculated from the plasma glucose time course data using the trapezoid rule with fasting plasma glucose as the baseline (GraphPad Prism Software). The statistical significance of the changes in the glucose AUCs resulting from the different treatments was determined by one-way ANOVA followed by Dunnett's test using the vehicle group as the control (JMP software, release 5.1.2). […]

[2] = molecular target: T1, human-mouse chimeric GPR119 (Homo sapiens, UniProt Q8TDV5, A235T/C313R/C323Y/E253K/F304I/F307L/G211A/G245S/H255C/K284R/L224V/L258Q/L288Q/L301F/P218V/P318T/Q252H/R262K/S214P/S219N/S228A/S309P/S322A/T217S/T239S/V227I/V300F); test: Tet-inducible cAMP assay; type: cell-based; conditions: cAMP accumulation (HTRF), Flp-In-T-Rex-HEK293 cells expressing chimeric human/mouse GPR119, 50 min incubation; read-out: GPR119 EC50
T1 construct: the first 198 amino acids of human GPR119; the C-terminal 137 amino acids of the mouse receptor; expressed in transfected cells
T1 sequence (Q8TDV5 with tags, fused parts or gaps G211A/S214P/T217S/P218V/S219N/L224V/V227I/S228A/A235T/T239S/G245S/Q252H/E253K/H255C/L258Q/R262K/K284R/L288Q/V300F/L301F/F304I/F307L/S309P/C313R/P318T/S322A/C323Y): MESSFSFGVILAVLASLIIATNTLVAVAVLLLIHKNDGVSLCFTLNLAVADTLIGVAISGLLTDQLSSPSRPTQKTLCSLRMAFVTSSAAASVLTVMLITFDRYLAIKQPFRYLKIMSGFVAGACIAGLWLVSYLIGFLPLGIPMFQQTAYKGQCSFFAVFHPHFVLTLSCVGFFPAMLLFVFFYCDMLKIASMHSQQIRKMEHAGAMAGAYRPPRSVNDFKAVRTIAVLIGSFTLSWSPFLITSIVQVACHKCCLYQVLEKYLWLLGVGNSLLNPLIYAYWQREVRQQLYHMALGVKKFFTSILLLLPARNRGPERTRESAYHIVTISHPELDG
Procedure: The in vitro modulation of recombinant human GPR119 was determined as follows.
A human-mouse chimeric GPR119 expression construct encoding 3 copies of the FLAG epitope tag, the first 198 amino acids of human GPR119 and the C-terminal 137 amino acids of the mouse receptor was cloned into a tetracycline inducible vector pcDNA5/FRT/TO (Invitrogen #V6520-20), which includes a hygromycin-resistance marker. Tightly controlled receptor expression was achieved by stable integration of this construct into the genome of a specific host cell line, Flp-In-T-Rex-HEK293, expressing the tetracycline repressor (Invitrogen). Once a stable hygromycin-resistant cell line was generated, the cells were maintained at 37° C. in a humidified 5% CO2 atmosphere in culture medium consisting of Dulbecco's modified Eagle's medium (DMEM; Invitrogen #11960) supplemented with 2 mM L-glutamine, 10% fetal bovine serum, 200 μg/ml hygromycin B, and 15 μg/ml blasticidin.
Forty-eight hours prior to the cAMP accumulation assay, cells stably expressing the chimeric human/mouse GPR119 construct were seeded at a density of 4×10^3 cells/well in 384 well poly-D-lysine coated solid white plates (BD #35-6661) and grown at 37° C. in a humidified 5% CO2 atmosphere in culture medium supplemented with 1 μg/ml tetracycline to induce expression of the receptor. On the day of the assay, medium was removed and cells were incubated for 50 min. at 37° C. in a humidified 5% CO2 atmosphere in 20 μl/well of assay buffer (phosphate-buffered saline with Ca^2+ and Mg^2+, 12 mM glucose, 0.1 mM isobutyl-methyl-xanthine, 0.1% fatty-acid free bovine serum albumin) with the desired concentration of compound added from a concentrated stock dissolved in dimethyl sulfoxide (DMSO) to give a final concentration of 1% DMSO in the assay. cAMP accumulation was measured using the CisBio homogeneous time resolved fluorescence (HTRF) assay kit (#62AM2PEC) following the manufacturer's protocol. Briefly, 10 μl each of the cAMP-HTRF fluorescence detection reagents were added to each well, and the samples were incubated for 40 min. at room temperature. Fluorescence was excited at 320 nm and measured at 665 and 620 nm using the Envision instrument (Perkin Elmer), the fluorescence ratio of 665/620 was calculated and converted to nanomolar concentrations of cAMP in each well by interpolation from a cAMP standard curve. The concentration-response curves and EC50 values were calculated with a four parameter logistic curve fit equation utilizing Excel/XLfit software (Microsoft and IDBS). The EC50 value was calculated as the concentration of agonist which increased the cAMP concentration to a value halfway between the baseline and the maximum.
Compounds of the present invention were tested in the Tet-inducible cAMP assay described immediately above and the results shown in Table 2 below were obtained.

Structure (SMILES)	Glucose Lowering (%) ([1]; change in plasma glucose AUC vs vehicle at the minimally efficacious dose, oGTT, oral)	Minimally efficacious Dose ([1]; oral administration 60 min before glucose load (2 g/kg), fasted male C57BL/6J mice) [mg/kg]	EC50 [2] [nM]
CCCc1cnc(N2CCC(Oc3nc4ccc(C5=CCN(S(=O)(=O)CCC)CC5)cc4s3)CC2)nc1 [Example 1, 2-(1-(5-Propylpyrimidin-2-yl)piperidin-4-yloxy)-6-(1-(propylsulfonyl)-1,2,3,6-tetrahydropyridin-4-yl)benzo[d]thiazole]	−39	10	–
COc1cnc(N2CCC(Oc3nc4ccc(C5=CCN(S(=O)(=O)CCCCO)CC5)cc4s3)CC2)nc1 [Example 241]	–	–	0.4
CC(C)(O)CCS(=O)(=O)N1CCC(c2ccc3nc(OC4CCN(c5ncc(Cl)cn5)CC4)sc3c2)CC1 [Example 246]	–	–	3.9
CCCc1cnc(N2C[C@@H]3[C@@H](COc4nc5ccc(-c6ccc(S(C)(=O)=O)cc6)cc5s4)[C@@H]3C2)nc1 [Example 266]	–	–	1080
Cc1nnc(N2CCC(Oc3nc4ccc(-c5ccc(S(C)(=O)=O)cc5)cc4s3)CC2)s1 [Example 294]	–	–	20.4
Cc1cc(C)nc(N2CCC(Oc3nc4ccc(-c5ccc(S(C)(=O)=O)cc5)cc4s3)CC2)n1 [Example 296]	–	–	46.1
CC(C)OC(=O)N1CCC(Oc2nc3ccc(C4=CCN(C(=O)OC(C)(C)C)CC4)cc3s2)CC1 [Example 301]	–	–	345
